{"source": "paper PMC4730117", "about": "“In vitro Biochemical Characterization of All Barley Endosperm Starch Synthases” (Frontiers in Plant Science, 2016)", "key": {"HvSSI": {"target": "T1, HvSSI (Hordeum vulgare, UniProt Q9M5A3)", "T1 construct": "gene SSI; without predicted chloroplast transit peptide, N-terminal His-tag, codon-optimised, E. coli", "T1 sequence (Q9M5A3 32-643)": "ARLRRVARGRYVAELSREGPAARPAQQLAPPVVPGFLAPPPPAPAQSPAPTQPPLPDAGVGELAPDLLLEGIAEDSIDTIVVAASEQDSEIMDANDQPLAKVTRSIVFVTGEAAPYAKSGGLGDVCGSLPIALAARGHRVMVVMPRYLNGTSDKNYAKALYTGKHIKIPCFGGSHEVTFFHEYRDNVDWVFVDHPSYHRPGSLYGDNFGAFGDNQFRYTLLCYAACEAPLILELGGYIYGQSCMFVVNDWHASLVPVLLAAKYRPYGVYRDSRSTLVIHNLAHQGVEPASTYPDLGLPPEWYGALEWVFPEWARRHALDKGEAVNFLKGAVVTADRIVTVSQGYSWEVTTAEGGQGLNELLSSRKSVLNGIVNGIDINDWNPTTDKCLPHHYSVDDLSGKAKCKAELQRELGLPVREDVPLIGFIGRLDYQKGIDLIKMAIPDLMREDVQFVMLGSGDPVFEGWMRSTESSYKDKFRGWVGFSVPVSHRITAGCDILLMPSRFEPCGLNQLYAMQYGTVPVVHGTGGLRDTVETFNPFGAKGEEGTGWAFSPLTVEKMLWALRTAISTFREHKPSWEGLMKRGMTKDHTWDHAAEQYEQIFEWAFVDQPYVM", "test": "biochemical", "parameters": "Thermofluor (differential scanning fluorimetry, Sypro orange), shift of melting temperature of HvSSI versus no additive", "settings": "0.1 mg/mL HvSSI, 1X Sypro orange, 20 mM Tris pH 8.0, 100 mM NaCl, read-out: Δ Tm to reference; for ΔTm at 10000 µM: 10 mM", "experimental": "HvSSI unfolding temperatures were measured with a variant of the Thermofluor method (Niesen et al., [2007]). Details are given in S.I. The effect of additives on SSI stability was studied in some detail with the thermofluor assay; details for many additives are given in S.I. The strongest effects were from sugars, which increased protein stability by 1°C for every 50 mM hexose present as oligosaccharides, with glucose and other monosaccharides having only half the effect."}, "[1]": {"substrate": "Nc1ncnc2c1ncn2[C@@H]1O[C@H](COP(=O)(O)OP(=O)(O)O[C@H]2O[C@H](CO)[C@@H](O)[C@H](O)[C@H]2O)[C@@H](O)[C@H]1O", "test": "coupled spectrophotometric assay (pyruvate kinase / lactate dehydrogenase, NADH)", "type": "biochemical, Hordeum vulgare", "settings": "10 mM maltotriose acceptor, 50 mM Bicine pH 8.5, 25 mM KOAc, 2 mM MgCl2, 37°C", "from_the_text": "coupled spectrophotometric assay (pyruvate kinase / lactate dehydrogenase, NADH) on HvSSIIIb"}, "[2]": {"substrate": "Nc1ncnc2c1ncn2[C@@H]1O[C@H](COP(=O)(O)OP(=O)(O)O[C@H]2O[C@H](CO)[C@@H](O)[C@H](O)[C@H]2O)[C@@H](O)[C@H]1O", "test": "coupled spectrophotometric assay (pyruvate kinase / lactate dehydrogenase, NADH)", "type": "biochemical, Hordeum vulgare", "settings": "10 mM maltotriose acceptor, 50 mM Bicine pH 8.5, 25 mM KOAc, 2 mM MgCl2, 37°C", "from_the_text": "coupled spectrophotometric assay (pyruvate kinase / lactate dehydrogenase, NADH) on […]", "remark": "listed apart in the source"}, "[3]": {"substrate": "Nc1ncnc2c1ncn2[C@@H]1O[C@H](COP(=O)(O)OP(=O)(O)O[C@H]2O[C@H](CO)[C@@H](O)[C@H](O)[C@H]2O)[C@@H](O)[C@H]1O", "test": "coupled spectrophotometric assay (pyruvate kinase / lactate dehydrogenase, NADH)", "type": "biochemical, Hordeum vulgare", "settings": "100 mM maltose (DP = 2) acceptor, 50 mM Bicine pH 8.5, 25 mM KOAc, 2 mM MgCl2, 37°C", "from_the_text": "coupled spectrophotometric assay (pyruvate kinase / lactate dehydrogenase, NADH) on HvGBSSI"}, "[4]": {"substrate": "Nc1ncnc2c1ncn2[C@@H]1O[C@H](COP(=O)(O)OP(=O)(O)O[C@H]2O[C@H](CO)[C@@H](O)[C@H](O)[C@H]2O)[C@@H](O)[C@H]1O", "test": "coupled spectrophotometric assay (pyruvate kinase / lactate dehydrogenase, NADH)", "type": "biochemical, Hordeum vulgare", "settings": "10 mM maltotriose acceptor, 50 mM Bicine pH 8.5, 25 mM KOAc, 2 mM MgCl2, 37°C", "from_the_text": "coupled spectrophotometric assay (pyruvate kinase / lactate dehydrogenase, NADH) on HvSSI", "remark": "listed apart in the source"}}}
{"molecule": "OC[C@H]1O[C@H](O[C@H]2[C@H](O)[C@@H](O)C(O)O[C@@H]2CO)[C@H](O)[C@@H](O)[C@@H]1O", "note": "(mixture of isomers) [maltose]", "values": [{"measurement": "ΔTm at 10000 µM", "setting": "HvSSI", "value": 0.3, "unit": "°C"}]}
{"molecule": "OCC1OC(OC2C(CO)OC(OC3C(CO)OC(OC4C(CO)OC(OC5C(CO)OC(OC6C(CO)OC(OC7C(CO)OC(OC8C(CO)OC(O)C(O)C8O)C(O)C7O)C(O)C6O)C(O)C5O)C(O)C4O)C(O)C3O)C(O)C2O)C(O)C(O)C1O", "note": "(stereo not shown) [maltooctaose]", "values": [{"measurement": "ΔTm at 10000 µM", "setting": "HvSSI", "value": 2, "unit": "°C"}]}
{"molecule": "OC[C@H]1OC(O)[C@H](O)[C@@H](O)[C@@H]1O", "note": "(stereo partly shown) [glucose]", "values": [{"measurement": "ΔTm at 100000 µM", "setting": "HvSSI; 100 mM", "value": 1, "unit": "°C"}]}
{"molecule": "OC[C@H]1O[C@H](O[C@H]2[C@H](O)[C@@H](O)[C@@H](O[C@H]3[C@H](O)[C@@H](O)[C@@H](O[C@H]4[C@H](O)[C@@H](O)[C@@H](O[C@H]5[C@H](O)[C@@H](O)C(O)O[C@@H]5CO)O[C@@H]4CO)O[C@@H]3CO)O[C@@H]2CO)[C@H](O)[C@@H](O)[C@@H]1O", "note": "(stereo partly shown) [maltopentaose]", "values": [{"measurement": "ΔTm at 10000 µM", "setting": "HvSSI", "value": 1.3, "unit": "°C"}]}
{"molecule": "C[C@H]1O[C@H](O[C@H]2[C@H](O)[C@@H](O)[C@@H](O[C@H]3[C@H](O)[C@@H](O)C(O)O[C@@H]3CO)O[C@@H]2CO)[C@H](O)[C@@H](O)[C@@H]1N[C@H]1C=C(CO)[C@@H](O)[C@H](O)[C@H]1O", "note": "(stereo partly shown) [acarbose]", "values": [{"measurement": "ΔTm at 10000 µM", "setting": "HvSSI", "value": 0.4, "unit": "°C"}]}
{"molecule": "HvSSIIIb (Hordeum vulgare subsp. vulgare) (protein, without predicted chloroplast transit peptide, N-terminal His-tag, codon-optimised, E. coli) SSDYPKRNPRRSSAPKPKGTASRGYAPRPSAESWTSTKKIEHGSADEDGDLGRSNGTLSGDATEQASTAEEESEVEFAGNVSSSAGLEGVAETEKEADQNQLPALSSTSMDVESVNEATEQTIIGDESSVVDFSGNVSGSVALEVVDESETEEEADQKQSSSLASTSMDSESIDRELEGYRARINALVGASTQEQDRSIIGVHDQDKSVISPNEQDISAVDVPEQGLSGVGVTREDPTKQTTSKQEITEAAVEEISSKNFVARKHSISGDGVEASKNANQQPLVDGDELKITEDEEQHEPEMQEYVRKDVDLQALKRRLEELADGNYSIGNKCFVFPELVKADSVIDLYLNRSMSALASEPDILIKGAFNGWRWNHFTERLHKSELSGDWWCCKLYIPKQAYRLDFVFFNGDTVYENNSYNDFVLHIESDIDEHSFEDFLLEEKQRELERLAAEEAERERQAEEERRKEEERAAMEADRAQAKAEVEMTRNNLQHVLGLASRYANNLWYIEPNTYKGGDRVRLYYNRSSGPLKHKNEIWLHGSYNNWTDGPSIVERLVKSDEQDGDWWYANVTLPESALVLDWVFADGPPGNARKYDNNGKRDFHAAVSKSISEDLFWVKEEHRIFERLQRERKEKEDAGRRKAEITARMKAEMKEKTMREFLLSQKHIVYTEPLEVRAGMTVDVLYNPSNTVLNGSPEVWFRCSFNRWTHPSGPLPPQKMVNAENGSHLQATVRVPLDAYMMDFVFSESEEGGMYDNRDGMDYHIPVSDSMAKEPPMHIVHIAVEMAPIAKVGGLGDVVTSLSRAIQDLGHKVEVVFPKYDCLNLSNVKDLHCRQSFTWGGTEIKVWFGKVEGISVYFLEPQNGMFWVGCVYGRNDESRFGFFCHSALEFLLQSGSSPDIIHCHDWSSAPVAWLYKQHYVHNGLPNGRVVFTIHNLEFGVHHIGKAMAHCDKATTVSYTYSKEVSGHGSIAPHYFKFHGIRNGIDSDIWDPYNDNFIPVHYTSENVVEGKSSAKRALQEKLGLHQTDSPLVGIISRLTAQKGIHLIKHAIYRTLERNGQVVLLGSAPDHRIQGDFSNLASKLHGEFDGRVKLCLTYDEPLSHLIYAGADFILVPSIFEPCGLTQLTAMRYGSIPIVRKTGGLYDTVFDVDDDKDRAREQGLEPNGFSFEGADSNGVDYALDRAITTWYDARGWFHSLCKRVMEQDWSWNRPALDYMELYHSARKN", "values": [{"measurement": "Km", "setting": "[1]", "value": "0.44 ± 0.04", "unit": "mM"}, {"measurement": "kcat", "setting": "[1]", "value": ">740 turnovers·min^-1 (DP = 3)"}]}
{"molecule": "HvSSIV (Hordeum vulgare subsp. vulgare) (protein, without predicted chloroplast transit peptide, C-terminal His-tag, codon-optimised, E. coli) QQRPQRSTAGADHLNTAANVRSDEAAVSAEKERQRKYSDGDGISNLQLEDLVEMIQNTEKNILLLNQARLQAMERADKILKEKEALQRKISILETRLSETDAQHKLSSEGNFSESPLALEFDVLKEENILLKEDIEFFKSKLIEVAKTEEGIFKLEKERALLDASLRELESRFIAAQADMMKLGPRDAWWEKVEKLEDLLETTANQVERAAVILDNNHDLQDKLDKLVASLQAANISKFSSSLVDLLQQKVKLVEERFQACNREMHSQIKLYEHSIVEFHDTLSKLIEESEKRSLENFTGNMPSELWSKISLLIDGWLLEKKISYNDASLLREMVRKRDSRLREAYLSYRGTENREVMDNFLKMALPGTSSGLHIAHIAAEMAPVAKVGGLADVISGLGKALQKKGHLVEIILPKYDCMQVDQVSNLKVLDVPVQSYFEGNMFDNKIWTGTVEGLPVYFIEPQHPAMFFSRAQYYGEHDDFKRFTYFSRAALELLYQSGKKVDIIHCHDWQTAFVAPLYWDVYANLGFNSARICFTCHNFEYQGTAPARDLAWCGLDVEHLDRPDRMRDNSHGRINAVKGAVVYSNIVTTVSPTYALEVLSQGGRGLQDTLKVHSRKFLGILNGIDTDTWNPSTDRYLKVQYNAKDLQGKAANKAALREQLNLASAYPSQPLVGCITRLVAQKGVHLIRHAIYKTAELGGQFVLLGSSPVPEIQREFEGIADHFQDNNNIRLILKYDDALSHCIYAASDMFIVPSIFEPCGLTQMIAMRYGSVPIVRKTGGLNDSVFDFDDETIPVEVRNGFTFVKADEQGLSSAMERAFNCYTRKPEVWKQLVQKDMTIDFSWDTSASQYEDIYQKAVARARAAA", "values": [{"measurement": "Km", "setting": "[2]", "value": "0.31 ± 0.02", "unit": "mM"}]}
{"molecule": "HvGBSSI (Hordeum vulgare) (protein, without predicted chloroplast transit peptide, N-terminal His-tag, codon-optimised, E. coli) ATGSGMNLVFVGAEMAPWSKTGGLGDVLGGLPPAMAANGHRVMVVSPRYDQYKDAWDTSVISEIKVADEYERVRFFHCYKRGVDRVFIDHPWFLEKVRGKTKEKIYGPDAGTDYEDNQQRFSLLCQAALEAPRILNLNNNPYFSGPYGEDVVFVCNDWHTGLLACYLKSNYQSNGIYRTAKVAFCIHNISYQGRFSFDDFAQLNLPDRFKSSFDFIDGYDKPVEGRKINWMKAGILQADKVLTVSPYYAEELISGEARGCELDNIMRLTGITGIVNGMDVSEWDPTKDKFLAVNYDITTALEAKALNKEALQAEVGLPVDRKVPLVAFIGRLEEQKGPDVMIAAIPEILKEEDVQIILLGTGKKKFEKLLKSMEEKFPGKVRAVVRFNAPLAHQMMAGADLLAVTSRFEPCGLIQLQGMRYGTPCVCASTGGLVDTIVEGKTGFHMGRLSVDCNVVEPADVKKVATTLKRAVKVVGTPAYQEMVKNCMIQDLSWKGPAKNWEDVLLELGVEGSEPGIVGEEIAPLAMENVAAP", "values": [{"measurement": "Km", "setting": "[3]", "value": "0.09 ± 0.02", "unit": "mM"}]}
{"molecule": "HvSSI (Hordeum vulgare) (protein, without predicted chloroplast transit peptide, N-terminal His-tag, codon-optimised, E. coli) ARLRRVARGRYVAELSREGPAARPAQQLAPPVVPGFLAPPPPAPAQSPAPTQPPLPDAGVGELAPDLLLEGIAEDSIDTIVVAASEQDSEIMDANDQPLAKVTRSIVFVTGEAAPYAKSGGLGDVCGSLPIALAARGHRVMVVMPRYLNGTSDKNYAKALYTGKHIKIPCFGGSHEVTFFHEYRDNVDWVFVDHPSYHRPGSLYGDNFGAFGDNQFRYTLLCYAACEAPLILELGGYIYGQSCMFVVNDWHASLVPVLLAAKYRPYGVYRDSRSTLVIHNLAHQGVEPASTYPDLGLPPEWYGALEWVFPEWARRHALDKGEAVNFLKGAVVTADRIVTVSQGYSWEVTTAEGGQGLNELLSSRKSVLNGIVNGIDINDWNPTTDKCLPHHYSVDDLSGKAKCKAELQRELGLPVREDVPLIGFIGRLDYQKGIDLIKMAIPDLMREDVQFVMLGSGDPVFEGWMRSTESSYKDKFRGWVGFSVPVSHRITAGCDILLMPSRFEPCGLNQLYAMQYGTVPVVHGTGGLRDTVETFNPFGAKGEEGTGWAFSPLTVEKMLWALRTAISTFREHKPSWEGLMKRGMTKDHTWDHAAEQYEQIFEWAFVDQPYVM", "values": [{"measurement": "Km", "setting": "[4]", "value": "0.63 ± 0.02", "unit": "mM"}]}
